Values of other authors, collected in patent publication US6096864A, “Peptides for use in wound treatment” (Johnson & Johnson Medical, Ltd., priority 1998, dated 2000).

Tested on: human fibroblast
Details: concentration range 2.5 mM to 25 mM

Gly-Pro-Ala
chemotactic activity: no chemotactic activity
